What was measured:
[1] = target: Spike glycoprotein (Severe acute respiratory syndrome coronavirus 2, UniProt P0DTC2); experiment: Inhibition of SARS-COV2 spike protein mediated infection of human ACE2 expressing cells at 50 uM […]
[2] = Inhibition of SARS-COV2 spike protein mediated infection of human ACE2 expressing cells at 50 uM […]
[3] = target: Angiotensin-converting enzyme 2 (Homo sapiens, UniProt Q9BYF1); experiment: Inhibition of SARS-COV2 S-RBD binding to human ACE2 expressed in HEK293T cells by NanoLuc luciferase assay
Angiotensin-converting enzyme 2, sequence (Q9BYF1 whole entry): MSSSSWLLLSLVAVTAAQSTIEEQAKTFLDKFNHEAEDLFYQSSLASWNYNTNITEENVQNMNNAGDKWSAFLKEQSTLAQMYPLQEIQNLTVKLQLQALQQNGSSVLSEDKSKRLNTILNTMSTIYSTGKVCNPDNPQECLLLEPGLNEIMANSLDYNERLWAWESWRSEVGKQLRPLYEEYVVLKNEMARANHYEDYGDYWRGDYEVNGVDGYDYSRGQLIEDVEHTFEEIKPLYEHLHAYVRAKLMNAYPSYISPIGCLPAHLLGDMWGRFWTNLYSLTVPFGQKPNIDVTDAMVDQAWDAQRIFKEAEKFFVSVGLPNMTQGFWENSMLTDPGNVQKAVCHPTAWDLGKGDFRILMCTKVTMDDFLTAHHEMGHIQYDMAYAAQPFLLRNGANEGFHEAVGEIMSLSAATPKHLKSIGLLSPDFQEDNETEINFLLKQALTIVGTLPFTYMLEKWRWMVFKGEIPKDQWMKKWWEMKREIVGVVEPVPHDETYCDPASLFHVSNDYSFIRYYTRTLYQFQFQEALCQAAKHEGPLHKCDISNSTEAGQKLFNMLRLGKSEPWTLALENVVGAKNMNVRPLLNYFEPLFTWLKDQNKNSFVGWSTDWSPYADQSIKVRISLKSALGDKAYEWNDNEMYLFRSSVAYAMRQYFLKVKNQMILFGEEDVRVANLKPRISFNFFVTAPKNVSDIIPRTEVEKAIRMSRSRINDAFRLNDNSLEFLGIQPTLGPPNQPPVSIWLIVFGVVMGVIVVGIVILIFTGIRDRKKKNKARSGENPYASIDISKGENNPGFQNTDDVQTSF

`COc1cc(Cc2cnc(N)nc2N)cc2c(N(C)C)cc(C)nc12` showed an IC50 [1] of 600 nM.

Molecule `O=c1cc(-c2ccc(O)c(O)c2)oc2cc(O)cc(O)c12` [2-(3,4-dihydroxyphenyl)-5,7-dihydroxy-4H-chromen-4-one] has an IC50 [2] of 10600 nM.

`O=C(OC[C@H]1O[C@@H](OC(=O)c2cc(O)c(O)c(O)c2)[C@H](OC(=O)c2cc(O)c(O)c(O)c2)[C@H](OC(=O)c2cc(O)c(O)c(O)c2)[C@@H]1O)c1cc(O)c(O)c(O)c1` [med.21724, Compound 2] gave an IC50 [2] of 4500 nM.

For `COc1cc(C)nc2c(OC)cc(Cc3cnc(N)nc3N)cc12`, the IC50 [3] was 700 nM.

— BindingDB's records for PubMed 32539378 (Shandong University, 2020)
